Source: US20250129430A1, “HIGH ATP-AFFINITY PROTEIN AS THERAPEUTIC TARGET FOR INTRACTABLE CANCER MOLECULAR SUBTYPES AND INHIBITOR THEREOF” (VeraVerse Co., Ltd., priority 2021, published 2025)

How the values were obtained:
Assay in all cases: Cell viability drug screen, 12-point dose-response AUC
Format in all cases: cell-based, human
SNU638 = SNU638 cells; 72 hours
Summary of the method: (§1)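 Viability: luminescence (Glo kit, 15 min RT), normalized to 0.5% DMSO vehicle. Dosing: half-log, 12 concentrations, 72 h. Cells: 5×10^3/well, treated 24 h after plating. Value: trapezoidal AUC, mean of repeats.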

OCUM1 = OCUM1 cells; 72 hours
Summary of the method: as §1

YCC3 = YCC3 cells; 72 hours
Summary of the method: as §1

MKN1 = MKN1 cells; 72 hours
Summary of the method: as §1

NCC20 = NCC20 cells; 72 hours
Summary of the method: as §1

YCC2 = YCC2 cells; 72 hours
Summary of the method: as §1

NCC24 = NCC24 cells; 72 hours
Summary of the method: as §1

SNU668 = SNU668 cells (SEM subtype); 72 hours
Summary of the method: as §1

SNU719 = SNU719 cells; 72 hours
Summary of the method: as §1

NCC19 = NCC19 cells; 72 hours
Summary of the method: as §1

SNU216 = SNU216 cells (non-SEM subtype); 72 hours
Summary of the method: as §1

NCI_N87 = NCI_N87 cells; 72 hours
Summary of the method: as §1

SNU601 = SNU601 cells; 72 hours
Summary of the method: as §1

MKN45 = MKN45 cells (non-SEM subtype); 72 hours
Summary of the method: as §1

SNU16 = SNU16 cells; 72 hours
Summary of the method: as §1

SNU1 = SNU1 cells; 72 hours
Summary of the method: as §1

KATO3 = KATO3 cells; 72 hours
Summary of the method: as §1

AGS = AGS cells (non-SEM subtype); 72 hours
Summary of the method: as §1

SNU1967 = SNU1967 cells; 72 hours
Summary of the method: as §1

SNU1750 = SNU1750 cells (SEM subtype); 72 hours
Summary of the method: as §1

SK4 = SK4 cells (SEM subtype); 72 hours
Summary of the method: as §1

Hs746T = Hs746T cells (SEM subtype); 72 hours
Summary of the method: as §1

MKN74 = MKN74 cells; 72 hours
Summary of the method: as §1

NCC59 = NCC59 cells; 72 hours
Summary of the method: as §1

SNU620 = SNU620 cells; 72 hours
Summary of the method: as §1

MKN28 = MKN28 cells; 72 hours
Summary of the method: as §1

YCC11 = YCC11 cells (SEM subtype); 72 hours
Summary of the method: as §1

SNU484 = SNU484 cells (SEM subtype); 72 hours
Summary of the method: as §1

FU97 = tested on: FU97; design: Average Area Under the Viability Curve (AUC), AUC norm value: scale not given here; conditions: FU97 cells; 72 hours
Summary of the method: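 Trapezoidal AUC of a 12-point, DMSO-normalized dose-response curve. Luminescent viability was measured after 72 h of exposure at 37° C to half-log serial dilutions (0.5% DMSO control), dosed 24 h after plating FU97 cells at 5×10^3 per well.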

Row | Structure (SMILES) | Average Area Under the Viability Curve (AUC), AUC norm value (SNU638) | Average Area Under the Viability Curve (AUC), AUC norm value (OCUM1) | Average Area Under the Viability Curve (AUC), AUC norm value (YCC3) | Average Area Under the Viability Curve (AUC), AUC norm value (MKN1) | Average Area Under the Viability Curve (AUC), AUC norm value (NCC20) | Average Area Under the Viability Curve (AUC), AUC norm value (YCC2) | Average Area Under the Viability Curve (AUC), AUC norm value (NCC24) | Average Area Under the Viability Curve (AUC), AUC norm value (SNU668) | Average Area Under the Viability Curve (AUC), AUC norm value (SNU719) | Average Area Under the Viability Curve (AUC), AUC norm value (NCC19) | Average Area Under the Viability Curve (AUC), AUC norm value (SNU216) | Average Area Under the Viability Curve (AUC), AUC norm value (NCI_N87) | Average Area Under the Viability Curve (AUC), AUC norm value (SNU601) | Average Area Under the Viability Curve (AUC), AUC norm value (MKN45) | Average Area Under the Viability Curve (AUC), AUC norm value (SNU16) | Average Area Under the Viability Curve (AUC), AUC norm value (SNU1) | Average Area Under the Viability Curve (AUC), AUC norm value (KATO3) | Average Area Under the Viability Curve (AUC), AUC norm value (AGS) | Average Area Under the Viability Curve (AUC), AUC norm value (SNU1967) | Average Area Under the Viability Curve (AUC), AUC norm value (SNU1750) | further results
1 | CC[C@]1(O)C[C@@H]2CN(CCc3c([nH]c4ccccc34)[C@@](C(=O)OC)(c3cc4c(cc3OC)N(C)[C@H]3[C@@](O)(C(=O)OC)[C@H](OC(C)=O)[C@]5(CC)C=CCN6CC[C@]43[C@@H]65)C2)C1 [Vinblastine] | 0.2652 | 2.514 | 4.54 | −0.9285 | −1.614 | 2.06 | −0.9438 | −1.037 | 4.162 | 2.905 | 2.539 | −0.1721 | 0 | 1.844 | −1.3 | −0.3949 | 4.096 | −1.129 | −0.9411 | 0.6497 | Average Area Under the Viability Curve (AUC), AUC norm value (SK4): −1.0813; Average Area Under the Viability Curve (AUC), AUC norm value (Hs746T): 1.1779; Average Area Under the Viability Curve (AUC), AUC norm value (MKN74): 0.6639; Average Area Under the Viability Curve (AUC), AUC norm value (NCC59): 2.833; Average Area Under the Viability Curve (AUC), AUC norm value (SNU620): −0.4909; Average Area Under the Viability Curve (AUC), AUC norm value (MKN28): −0.818; Average Area Under the Viability Curve (AUC), AUC norm value (YCC11): −0.6159; Average Area Under the Viability Curve (AUC), AUC norm value (SNU484): −1.194; Average Area Under the Viability Curve (AUC), AUC norm value (FU97): 0.3772
2 | CC[C@]1(O)C[C@H]2CN(CCc3c([nH]c4ccccc34)[C@@](C(=O)OC)(c3cc4c(cc3OC)N(C=O)[C@H]3[C@@](O)(C(=O)OC)[C@H](OC(C)=O)[C@]5(CC)C=CCN6CC[C@]43[C@@H]65)C2)C1 [Vincristine] | 0.1348 | 0.6548 | 4.6576 | −1.53 | −1.434 | 2.298 | −3.156 | −1.315 | 5.036 | 5.039 | 1.755 | 1.615 | 0.9381 | 2.226 | −1.522 | −0.5253 | 4.8981 | −1.75 | −1.3653 | 0 | Average Area Under the Viability Curve (AUC), AUC norm value (SK4): −1.283; Average Area Under the Viability Curve (AUC), AUC norm value (Hs746T): 1.044; Average Area Under the Viability Curve (AUC), AUC norm value (MKN74): 0.209; Average Area Under the Viability Curve (AUC), AUC norm value (NCC59): 3.847; Average Area Under the Viability Curve (AUC), AUC norm value (SNU620): −0.3792; Average Area Under the Viability Curve (AUC), AUC norm value (MKN28): −0.493; Average Area Under the Viability Curve (AUC), AUC norm value (YCC11): −1.42; Average Area Under the Viability Curve (AUC), AUC norm value (SNU484): −1.965; Average Area Under the Viability Curve (AUC), AUC norm value (FU97): −1.115
3 | O=C(CCCCCCC(=O)Nc1ccccc1)NO [Vorinostat (SAHA), Vorinostat] | −0.4313 | −0.5166 | 1.034 | 0.4282 | −0.9328 | 0.09328 | −0.3421 | 0.4303 | 1.843 | 0.2993 | −0.04999 | 0.8986 | 2.84 | 2.416 | −0.7875 | −0.2152 | 0 | −0.5947 | −0.2574 | −0.5737 | Average Area Under the Viability Curve (AUC), AUC norm value (SK4): 0.6434; Average Area Under the Viability Curve (AUC), AUC norm value (Hs746T): −0.04774; Average Area Under the Viability Curve (AUC), AUC norm value (MKN74): −0.07666; Average Area Under the Viability Curve (AUC), AUC norm value (NCC59): 1.01; Average Area Under the Viability Curve (AUC), AUC norm value (SNU620): 0.08594; Average Area Under the Viability Curve (AUC), AUC norm value (MKN28): −0.08142; Average Area Under the Viability Curve (AUC), AUC norm value (YCC11): −0.2285; Average Area Under the Viability Curve (AUC), AUC norm value (SNU484): 1.041; Average Area Under the Viability Curve (AUC), AUC norm value (FU97): 0.2975
